Where a SMILES comes first, the peptide text is derived from it. Bridges are numbered along the chain shown (N, C = ends). [ ]: non-standard residue; d: D form. R8 = C=CCCCCCC[C@@](C)(N)C(=O)O; S5 = C=CCCC[C@](C)(N)C(=O)O
Assays:
[1] = system: MDMX; settings: cited from earlier work
[2] = biological target: T1, MDMX (Homo sapiens, UniProt O15151); experiment: Binding assay on immobilized protein surface; settings: n = 2
T1 sequence (O15151 1-490): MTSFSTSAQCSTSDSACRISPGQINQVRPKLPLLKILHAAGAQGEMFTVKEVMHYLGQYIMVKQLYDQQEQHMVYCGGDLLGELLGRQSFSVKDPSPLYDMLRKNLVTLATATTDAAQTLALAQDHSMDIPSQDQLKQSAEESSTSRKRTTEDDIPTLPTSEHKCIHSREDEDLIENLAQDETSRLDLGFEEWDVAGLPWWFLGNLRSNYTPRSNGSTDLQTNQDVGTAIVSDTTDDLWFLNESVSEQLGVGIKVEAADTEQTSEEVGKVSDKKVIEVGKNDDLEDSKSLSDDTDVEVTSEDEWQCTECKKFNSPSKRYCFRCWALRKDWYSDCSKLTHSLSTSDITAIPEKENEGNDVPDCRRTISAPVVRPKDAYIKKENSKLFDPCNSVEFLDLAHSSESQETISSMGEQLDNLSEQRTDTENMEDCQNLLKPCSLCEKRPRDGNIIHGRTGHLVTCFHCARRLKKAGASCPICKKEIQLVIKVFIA

[3] = biological target: MDM2 (Homo sapiens, UniProt Q00987); experiment: Binding assay on immobilized protein surface; settings: n = 2
[4] = system: ML2 cells; experiment: ML2 AML xenograft in mice; assay type: in vivo, mouse; settings: vehicle 28.5
[5] = system: circulating CD34+ leukemic blasts; experiment: Compassionate-use treatment of one MDS/AML patient; assay type: in vivo, human
[6] = system: primary AML cells; experiment: Viability, CFC and apoptosis of primary AML patient cells; assay type: cell-based, human; settings: AML n = 4 compared to healthy controls n = 3
[7] = system: SJSA-1 cells; experiment: p21 protein ELISA in SJSA-1 cells; assay type: cell-based, human; settings: 21 hours after treatment, n = 2
[8] = system: patient's MDS/AML cells; experiment: In vitro treatment of the MDS/AML patient's cells; assay type: cell-based, human
[9] = system: p53 WT AML cells (primary AML cells, MOLM13); experiment: p53 pathway activation; assay type: cell-based, human
[10] = system: p53 WT AML cell lines; experiment: Cell cycle; assay type: cell-based, human
[11] = system: leukemia cell lines with WT p53; experiment: Cytotoxicity assay in leukemia cell lines with WT p53; settings: five cell lines with WT p53; table S2
[12] = system: p53 WT AML cell lines (MOLM13, MOLM14, ML2, OCI/AML3, OCI/AML5); experiment: Proliferation by trypan blue exclusion, p53 WT AML cell lines; assay type: cell-based, human
[13] = system: healthy hematopoietic cells; experiment: Effects on healthy hematopoiesis in non-tumor-bearing C57/BL6 mice; assay type: in vivo, mouse; settings: 20 mg/kg TIW for 4 weeks
[14] = clinical trials; cited from earlier work
[15] = system: HL60 (p53 null); experiment: Proliferation and apoptosis in HL60; assay type: cell-based, human
[16] = system: MOLM13 cells; experiment: MOLM13 AML xenograft in NSG mice; assay type: in vivo, mouse; settings: for median survival: vehicle 34
[17] = system: U2OS p21-MS2 cells; experiment: Live-cell imaging of p21-MS2 transcription sites; settings: 5 μM, 4 hours after addition; 54 treated cells; untreated 16%
[18] = system: MOLM13 p53 shRNA knockdown cell lines; experiment: Proliferation and apoptosis in isogenic p53 shRNA MOLM13 cell lines; assay type: cell-based, human; settings: n = 3
[19] = system: AML cell lines; experiment: Colony-forming capacity and serial replating of AML cell lines
[20] = system: SJSA-1 cells; experiment: Caspase-Glo 3/7 assay in SJSA-1 cells; assay type: cell-based, human; settings: Caspase-Glo 3/7, 48 hours after treatment; n = 2
[21] = system: Kasumi-1 (p53 R248Q mutant)
[22] = cited from earlier work
[23] = system: MDMX; experiment: MDMX expression in AML cells; settings: mRNA and protein levels

MDM2, sequence (Q00987 whole entry): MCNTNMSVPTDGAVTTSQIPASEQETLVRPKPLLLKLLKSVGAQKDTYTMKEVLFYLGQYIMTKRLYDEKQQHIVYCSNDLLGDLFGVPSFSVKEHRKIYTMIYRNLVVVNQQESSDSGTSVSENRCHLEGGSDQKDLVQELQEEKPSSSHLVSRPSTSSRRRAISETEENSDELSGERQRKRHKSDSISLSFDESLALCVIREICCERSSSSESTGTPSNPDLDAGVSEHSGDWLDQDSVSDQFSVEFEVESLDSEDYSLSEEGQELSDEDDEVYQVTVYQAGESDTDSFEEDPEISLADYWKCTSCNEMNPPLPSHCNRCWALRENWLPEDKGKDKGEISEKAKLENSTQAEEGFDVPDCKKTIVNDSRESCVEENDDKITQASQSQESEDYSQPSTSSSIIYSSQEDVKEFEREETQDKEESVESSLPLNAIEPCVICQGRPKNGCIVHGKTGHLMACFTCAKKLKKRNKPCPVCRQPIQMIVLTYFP

COc1cc(C(=O)O)ccc1NC(=O)[C@@H]1N[C@@H](CC(C)(C)C)[C@](C#N)(c2ccc(Cl)cc2F)[C@H]1c1cccc(Cl)c1F [RG7388]
affinity for MDMX [1]: lack of affinity for MDMX | binding to MDMX [2]: did not bind to MDMX at all | wash-off t1/2 from MDM2-coated surface [3]: 2 to 3 min

CC(=O)N[C@@H](CC(C)C)C(=O)N[C@H](C(=O)N[C@@H](Cc1ccccc1)C(=O)N[C@]1(C)CCCCCC/C=C\CCC[C@@](C)(C(=O)N[C@@H](C)C(=O)N[C@@H](C)C(=O)N[C@@H](C)C(=O)N[C@@H](C)C(=O)N[C@@H](C)C(=O)N[C@H](C)C(N)=O)NC(=O)[C@H](CC(C)C)NC(=O)[C@H](CCC(N)=O)NC(=O)[C@H](C)NC(=O)[C@H](Cc2c[nH]c3ccccc23)NC(=O)[C@H](Cc2ccc(O)cc2)NC(=O)[C@H](CCC(=O)O)NC1=O)[C@@H](C)O [ALRN-6924] (Ac-LTF[R8]EYWAQL[S5]AAAAA[dA]-NH2; staple (Z) 4-11; N-terminus and C-terminus assumed)
average median survival ([4]; 20 mg/kg IV BIW): 38 days | average median survival ([4]; 20 mg/kg IV TIW): 72 days | thrombocytopenia on treatment ([5]; 3.1 mg/kg IV once weekly, one patient): no grade 3 or 4 thrombocytopenia was observed | circulating CD34+ leukemic blasts ([5]; 3.1 mg/kg IV once weekly, weeks 2 and 3): less than 1% | circulating CD34+ leukemic blasts ([5]; 3.1 mg/kg IV once weekly, within 12 hours, initially 5 to 7%): 1.5 to 2.5% | p53 protein (intracellular FACS) ([5]; 3.1 mg/kg IV, first administration): rapidly induced in CD34^+ leukemic blasts, but not in healthy lymphocytes | CFC of primary AML PBMCs [6]: inhibited CFC | p21 protein [7]: concentration- dependent increase | AML-inhibitory effect versus RG7388 ([8]; 10 μM each): greater AML-inhibitory effect than RG7388 | cell proliferation and clonogenic capacity of the patient's MDS/AML cells ([8]; 10 μM in liquid culture, CFC 10 days): inhibited cell proliferation and clonogenic capacity | p53 target gene expression (qRT-PCR) ([9]; MOLM13, 24 hours of treatment, n = 3): up-regulated CDKN1A, MDM2, BAX, PUMA, and GADD45a in a dose-dependent manner | p53, p21 and MDM2 protein ([9]; Western blot, primary AML cells and AML cell lines expressing WT p53, not in p53 null AML cells): stabilized p53 and up-regulated its downstream targets p21 and MDM2 in p53 WT cells in a dose-dependent manner | apoptosis ([10]; annexin V/DAPI, 24 hours, all five AML cell lines, n = 3): dose-dependent increase in apoptosis | cell cycle ([10]; propidium iodide staining, all p53 WT AML cell lines): induced cell cycle arrest | cytotoxic activity [11]: potent activity against all five cell lines with WT p53 | sensitivity of OCI/AML3 ([12]; OCI/AML3, suspension culture): less sensitive | cellular proliferation ([12]; trypan blue exclusion, dose- and time-dependent, n = 3): inhibited cellular proliferation | frequency of HSCs and progenitors versus control [13]: no significant differences | thrombocytopenia (platelet counts) ([13]; n = 10): did not show signs of thrombocytopenia | neutrophils ([13]; n = 10, within the normal range): only a modest reduction in neutrophils | grade 3/4 thrombocytopenias [14]: no reported grade 3/4 thrombocytopenias | cell proliferation ([15]; HL60 (p53 null)): no effect on cell proliferation | apoptosis ([15]; HL60, doses between 5 and 10 μM): did not observe a significant increase in apoptosis | median survival ([16]; 20 mg/kg IV BIW (group 2)): 83 days | mice alive 300 days after treatment ([16]; 20 mg/kg IV TIW (group 3)): 40% | median survival ([16]; 20 mg/kg IV TIW (group 3)): 151 days | average engraftment of human CD45 leukemic cells ([16]; 20 mg/kg, after 5 weeks of treatment, mouse BM, FACS, vehicle 23.3%): 0.00557% | increase of median survival compared to the control ([16]; 8 or 12 mg/kg IV BIW): 5.5 days | human CD45 leukemic cells in the BM ([16]; 8 or 12 mg/kg IV BIW, day 7 after the start of treatment): dose-dependent decrease in human CD45 leukemic cells | proportion of cells harboring an active TS [17]: ~ 44% | p53 dependency of growth inhibition and apoptosis [18]: completely p53-dependent manner | colony-forming capacity (CFC) ([19]; 0.5 pM (so in the source), methylcellulose, 10 days, n = 3): abrogated the colony-forming capacity | serial replating capacity ([19]; 0.5 μM, three of the five AML cell lines): completely abrogated serial replating capacity | potency in CFC and serial replating assays versus comparators ([19]; AML cell lines): increased potency over RG7388 and all other p53- stapled peptide prototypes tested | inhibition of clonogenicity versus RG7388 ([19]; all five AML cell lines): greater inhibition of clonogenicity compared to RG7388 | caspase-3/7 activity [20]: concentration- dependent increase | cell proliferation [21]: no effect on cell proliferation

CCOc1cc(C(C)(C)C)ccc1C1=N[C@@](C)(c2ccc(Cl)cc2)[C@@](C)(c2ccc(Cl)cc2)N1C(=O)N1CCN(CCCS(C)(=O)=O)CC1 [RG7112]
affinity for MDMX [1]: lack of affinity for MDMX

COc1ccc(C2=N[C@@H](c3ccc(Cl)cc3)[C@@H](c3ccc(Cl)cc3)N2C(=O)N2CCNC(=O)C2)c(OC(C)C)c1 [Nutlin-3]
bioavailability [22]: poor bioavailability

CN1CCN(c2ccc([N+](=O)[O-])c3no[n+]([O-])c23)CC1 [NSC-207895]
expression of MDMX [23]: downregulated expression of MDMX

From article PMC6130841 (Science translational medicine, 2018)
